# Data from patent publication US11578055B2, “Triazacyclododecansulfonamide (“TCD”)-based protein secretion inhibitors” (KEZAR LIFE SCIENCES, priority 2018, dated 2023).
# Read-outs that look alike come from different tables or passages of the source.
# Assays:
# [1] = test system: PD1 signal sequence plus 10 amino acids fused to Gaussia Luciferase (PD1-ss+10aa/Gaussia Luciferase); test: Dox Induced PD1-ss-Gluc Assay; assay type: cell-based; settings: 24 hr, read-out: 24 hr Dox Inducible PD1ssGluc 293FRT/TO: Mean IC50
# Method in brief: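 Stable Flp-In 293 T-REx line expressing the fusion under tetracycline-inducible control, plated the day before assay. Compound dilutions added with doxycycline and incubated at 37 °C, 5% CO2; unspecified stereocentres mean data refer to stereoisomer mixtures.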
# [2] = test system: full length TNFα (amino acids 1-233) fused to Gaussia Luciferase; test: Dox Induced TNFα-FL-Gluc Assay; assay type: cell-based; settings: 24 hr, read-out: 24 hr Dox Inducible TNFaFLGluc 293FRT/TO: Mean IC50
# Method in brief: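 Stable Flp-In 293 T-REx line expressing doxycycline-inducible full-length TNFα fused to Gaussia luciferase; cells plated the day before, then treated with compound dilutions in doxycycline-containing medium at 37° C, 5% CO2. Unspecified stereocentres mean stereoisomer mixtures were tested.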
# [3] = test system: full length IL-2 (amino acids 1-153) fused to Gaussia Luciferase; test: Dox Induced IL2-FL-Gluc Assay; assay type: cell-based; settings: 24 hr, Dox inducible, 293FRT/TO cells; read-out: 24 hr Dox Inducible IL2FLGluc 293FRT/TO: Mean IC50
# Description: FIp-In 293 T-REx™ cells were transfected with pcDNA™5/FRT/TO plasmid inserted with cDNA encoding Gaussia Luciferase fused to the 3′ end of cDNA encoding full length IL-2 (amino acids 1-153). Transfected cells were selected for resistance to the selectable markers Hygromycin and Blasticidin to create a stable cell line that contained the IL-2-FL/Gaussia Luciferase cDNA insert whose expression was regulated under the T-REx™ system. The day before assay, cells were trypsinized and plated in 384-well tissue culture plates. The next day, compound dilutions in DMSO/media containing doxycycline were added to the wells and incubated at 37° C., 5% CO2.
# For chemical structures that include one or more stereoisomers, but are illustrated without indicating stereochemistry, the assay data refers to a mixture of stereoisomers.
# [4] = test system: multiple myeloma cell line NCl-H929; test: H929 Cell Viability Assay; assay type: cell-based, human; settings: Homo sapiens, NCI-H929, 48 h
# Method in brief: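 NCI-H929 myeloma cells in RPMI 1640 with 10% FBS were treated with compound dilutions for 48 h at 37 °C, and viability was then read by CellTiter-Glo luminescence. Compounds drawn without stereochemistry were tested as stereoisomer mixtures.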
# [5] = test system: multiple myeloma cell line U266B1; test: U266 Cell Viability Assay; assay type: cell-based, human; settings: Homo sapiens, U-266, 48 hr
# Method in brief: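 U266B1 myeloma cells in RPMI 1640 with 10% FBS were treated with compound dilutions for 48 h at 37° C, 5% CO2. Viability was read as CellTiter-Glo luminescence. Data for structures drawn without stereochemistry refer to stereoisomer mixtures.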
# [6] = In Vitro Microsome Stability Assay (human); assay type: in vitro ADME
# Method in brief: (§1)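 Species liver microsomes in potassium phosphate buffer were preincubated at 37 °C for 3–5 min with test compound (added from 0.25 mM DMSO stock), then started with NADPH. Samples at 0 and 30 min were quenched with acetonitrile containing internal standard and analysed by LC-MS/MS; % remaining at 30 min used analyte/IS AUC ratios relative to t=0.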
# [7] = In Vitro Microsome Stability Assay (mouse); assay type: in vitro ADME
# Method in brief: as §1
# [8] = In Vitro Microsome Stability Assay (rat); assay type: in vitro ADME
# Method in brief: as §1
# [9] = In Vitro Microsome Stability Assay (monkey); assay type: in vitro ADME
# Method in brief: as §1
# [10] = H929, read-out: 48 hr H929 Viability Celltiter-Glo: Mean EC50
# [11] = U266, read-out: 48 hr U266 Viability Celltiter-Glo: Mean EC50
# [12] = human liver microsomes, 30 min w/ NADPH
# [13] = mouse liver microsomes, 30 min w/ NADPH
# [14] = rat liver microsomes, 30 min w/ NADPH
# [15] = monkey liver microsomes, 30 min w/ NADPH
Structure (SMILES),"IC50 ([1]; Dox inducible, 293FRT/TO cells)","IC50 ([2]; Dox inducible, 293FRT/TO cells)",IC50 [3],"EC50 ([4]; H929, Celltiter-Glo)","EC50 ([5]; U266, Celltiter-Glo)",IC50 ([1]; 293FRT/TO),IC50 ([2]; 293FRT/TO),"EC50 [4, 10]","EC50 [5, 11]","Liver Microsome Stability-% Left after 30 min w/ NADPH (%) Human ([6]; human, 30 min, NADPH)","Liver Microsome Stability-% Left after 30 min w/ NADPH (%) Mouse ([7]; mouse, 30 min, NADPH)","Liver Microsome Stability-% Left after 30 min w/ NADPH (%) Rat ([8]; rat, 30 min, NADPH)","Liver Microsome Stability-% Left after 30 min w/ NADPH (%) Monkey ([9]; monkey, 30 min, NADPH)","Liver Microsome Stability-% Left after 30 min w/ NADPH (%) Human [6, 12]","Liver Microsome Stability-% Left after 30 min w/ NADPH (%) Mouse [7, 13]","Liver Microsome Stability-% Left after 30 min w/ NADPH (%) Rat [8, 14]","Liver Microsome Stability-% Left after 30 min w/ NADPH (%) Monkey [9, 15]"
"C[C@@H](CNS(=O)(=O)c1ccc(N(C)C)cc1)CNS(=O)(=O)N1CCc2cc(Cl)ccc2C1 [B10, (S)-6-chloro-N-(3-((4-(dimethylamino)phenyl)sulfonamido)-2-methylpropyl)-3,4-dihydroisoquinoline-2(1H)-sulfonamide]",16.5 µM,> 25 µM,6.92 µM,> 25 µM,> 25 µM,–,–,–,–,–,–,–,–,–,–,–,–
"COC1CN(S(=O)(=O)c2ccc(N(C)C)cc2)CCCN(CC2CCCCC2)CCCN(S(=O)(=O)N2CCC(c3ccccc3)CC2)C1 (centres unmarked) [A61, 4-{[9-(cyclohexylmethyl)-3-methoxy-5-[(4-phenylpiperidin-1-yl)sulfonyl]-1,5,9-triazacyclododecan-1-yl]sulfonyl}-N,N-dimethylaniline]",–,–,–,–,–,0.956 µM,> 25 µM,> 25 µM,> 25 µM,13.3%,17.9%,19.6%,8.96%,–,–,–,–
"C=C1CN(S(=O)(=O)c2ccc(N(C)C)cc2)CCCN(CC2CCCCC2)CCCN(S(=O)(=O)N2CCC(c3nc4ccccc4o3)CC2)C1 [A80, 4-[(5-{[4-(1,3-benzoxazol-2-yl)piperidin-1-yl]sulfonyl}-9-(cyclohexylmethyl)-3-methylidene-1,5,9-triazacyclododecan-1-yl)sulfonyl]-N,N-dimethylaniline]",–,–,–,–,–,0.273 µM,> 25 µM,> 25 µM,> 25 µM,10.8%,13.4%,14.1%,2.56%,–,–,–,–
"CN(C)c1ccc(S(=O)(=O)N2CCCN(CC3CCCCC3)CCCN(S(=O)(=O)N3CCCCC3)CC2)cc1 [B3, 4-{[8-(cyclohexylmethyl)-4-(piperidine-1-sulfonyl)-1,4,8-triazacycloundecan-1-yl]sulfonyl}-N,N-dimethylaniline]",7.38 µM,> 25 µM,–,9.44 µM,12.6 µM,–,–,–,–,–,–,–,–,0.26%,0.15%,0.1%,0.08%

# More lines, now with the values ahead:
"IC50 ([1]; Dox inducible, 293FRT/TO cells)","IC50 ([2]; Dox inducible, 293FRT/TO cells)",IC50 [3],"EC50 ([4]; H929, Celltiter-Glo)","EC50 ([5]; U266, Celltiter-Glo)",IC50 ([1]; 293FRT/TO),IC50 ([2]; 293FRT/TO),"EC50 [4, 10]","EC50 [5, 11]","Liver Microsome Stability-% Left after 30 min w/ NADPH (%) Human ([6]; human, 30 min, NADPH)","Liver Microsome Stability-% Left after 30 min w/ NADPH (%) Mouse ([7]; mouse, 30 min, NADPH)","Liver Microsome Stability-% Left after 30 min w/ NADPH (%) Rat ([8]; rat, 30 min, NADPH)","Liver Microsome Stability-% Left after 30 min w/ NADPH (%) Monkey ([9]; monkey, 30 min, NADPH)","Liver Microsome Stability-% Left after 30 min w/ NADPH (%) Human [6, 12]","Liver Microsome Stability-% Left after 30 min w/ NADPH (%) Mouse [7, 13]","Liver Microsome Stability-% Left after 30 min w/ NADPH (%) Rat [8, 14]","Liver Microsome Stability-% Left after 30 min w/ NADPH (%) Monkey [9, 15]",Structure (SMILES)
> 25 µM,> 25 µM,> 25 µM,> 25 µM,> 25 µM,–,–,–,–,–,–,–,–,–,–,–,–,"C[C@H](CNS(=O)(=O)c1ccc(N(C)C)cc1)CNS(=O)(=O)N1CCc2cc(Cl)ccc2C1 [B11, N-[(2 R)-3-{[(6-chloro-1,2,3,4-tetrahydroisoquinolin-2-yl)sulfonyl]amino}-2-methylpropyl]-4-(dimethylamino)benzene-1-sulfonamide]"
5.66 µM,> 25 µM,> 25 µM,> 25 µM,> 25 µM,–,–,–,–,–,–,–,–,–,–,–,–,C[C@@H](CN(C)S(=O)(=O)c1ccc(N(C)C)cc1)CN(C)S(=O)(=O)N1CCc2cc(Cl)ccc2C1 [B12]
0.794 µM,> 25 µM,–,> 25 µM,> 25 µM,–,–,–,–,–,–,–,–,5.43%,3.41%,11.1%,1.73%,"CN(C)c1ccc(S(=O)(=O)N2CCCN(CC3CCCCC3)CCCN(S(=O)(=O)N3CCC(c4ccccc4)CC3)CC(=O)C2)cc1 [B20, 9-(cyclohexylmethyl)-1-((4-(dimethylamino)phenyl)sulfonyl)-5-((4-phenylpiperidin-1-yl)sulfonyl)-1,5,9-triazacyclododecan-3-one]"
